Here are results for 12 compounds from patent US8362047B1, “Anti-cancer agents based on 4-(hetero)Ary1-1,2,5-oxadiazol-3-yl Amino derivatives and a method of making” (U.S. Department of Energy, priority 2010, dated 2013).

SMILES strings stand for the structures. pIC50: −log10 of the molar value.

The experiment relates to DU-145 cells. Put plainly: Cell proliferation assay (Alamar-Blue) in DU-145 cells. Particulars: DU-145 human prostate carcinoma cells, 3 days incubation, Alamar-Blue fluorescence. Type of experiment: cell-based. As to the method: Protocol for Cell Proliferation Assay:
This homogeneous assay involves simply adding a single reagent, the Alamar-Blue to the cell culture and measuring the fluorescence intensity (excitation wavelength=530 nm, emission wavelength=590 nm) after an incubation step. The Alamar-Blue reagent utilizes the redox dye resazurin, which is not fluorescent, but upon reduction by metabolically active cells is converted into a highly fluorescent product (resorufin). A decrease in fluorescence in the presence of a test compound indicates reduced proliferation. This change in signal is proportional to the number of viable cells and used as a measure of relative cytotoxicity. Therefore, the fluorescence intensity observed in this assay is a true measure of the viable proliferative cells.
• 2 mM stock of Paclitaxel in DMSO. • DMSO—(dimethylsulfoxide) (Panreac, Cat. number 141954.1611) • Resazurin sodium salt (Sigma, R-7071). 50 mM stock in DMSO. Equipment • Biomek FX Laboratory Automated Workstation (Beckman Coulter Inc., Fullerton, Calif.) • CO2 incubator (VWR Science, USA) • Bright line Hemacytometer (Z359629, Sigma, Ill., USA) Materials • 384-deep well plates (Greiner, No 781270) • 384-well optical bottom tissue culture plates (Greiner, No. 82051-282) Propagation CONDITIONS: 37° C., air 95%; carbon dioxide (CO2) 5%, humidified atmosphere. SUBCULTURING: • Cells were grown in 175 cm^2 flasks to 90-100% of confluency. • Culture media (RPMI-1640 (Paneco, C310)+10% FBS (fetal bovine serum)) was aspirated and cell layer was briefly rinsed with 0.53 mM EDTA solution to remove all traces of serum. • 2 ml of 0.2% trypsin/0.53 mM EDTA (ethylenediaminetetraacetic acid) solution was added to cells. • Flasks were returned to incubator for 5 rain to allow cells detachment • Add 6.0 ml of complete growth medium. • Single cell suspension was created by gently pipetting. • Cells are counted using a Hematocytometer and suspension with desirable cell concentration is prepared.
To test proliferation inhibition DU-145 cells were plated in 384-well plate at the density 4000 cells/well. Next day 4 mM solutions of compounds in DMSO were diluted 100 times in medium and added to cells to final concentration 20 uM (40 ul of cells+40 ul of compounds). Taxol at final concentration 1 uM was used as positive control. Cells were incubated with compounds for 3 days. After that Alamar-Blue was added to cells to a final concentration of 50 uM. After incubation for 4-6 hours at 37° C., fluorescence in plate was read using fluorescence plate reader Wallac 1420 (530 nm excitation filter, 590 nm emission filter). Proliferation inhibition was calculated using formula: % INH=100*((Fnegative−compound signal)/(Fnegative−Fpositive)), • Fnegative—DMSO was added to cells (viable cells) • Fpositive—taxol (1 uM) was added to cells (number of cells at the first day of incubation)
(The colour change of resazurin is a common sign of viable cells or microbes.)

In general, pIC50 refers to the negative decadic logarithm of the IC50, by convention in mol/L. `CCCOc1ccccc1C(=O)Nc1nonc1-c1ccc(OC)cc1` [Example 6, 2-Propoxy-N^1-[4-(4-methoxyphenyl)-1,2,5-oxadiazol-3-yl]benzamide]: the pIC50 (72 h) is 6.07.
With `CCOC(=O)Cn1c(-c2nonc2NC(=O)c2ccccc2F)nc2ccccc21` [Example 4, Ethyl 2-(2-4-[(2-fluorobenzoyl)amino]-1,2,5-oxadiazol-3-yl-1H-1,3-benzimidazol-1-yl)acetate], the pIC50 was 6.49.
Take `CCCCOc1ccccc1C(=O)Nc1nonc1-c1ccc(OCC)cc1` [Example 9, 2-Butoxy-N^1-[4-(4-ethoxyphenyl)-1,2,5-oxadiazol-3-yl]benzamide]: the pIC50 (72 h) was 6.07.
Still for that read-out and setting: the value for `CCOc1ccc(-c2nonc2NC(=O)c2ccccc2OCC)cc1` [Example 7, 2-Ethoxy-N^1-[4-(4-ethoxyphenyl)-1,2,5-oxadiazol-3-yl]benzamide] was 6.92.
Still for that read-out and setting: the value for `C=CCn1c(-c2nonc2NC(=O)c2ccccc2Cl)nc2ccccc21` [Example 3, 2-Chloro-N^1-[4-(1-allyl-1H-1,3-benzimidazol-2-yl)-1,2,5-oxadiazol-3-yl]benzamide] was 6.05; that for `CCOc1ccc(-c2nonc2NC(=O)c2oc3ccc(Cl)cc3c2C)cc1` [Example 12, 5-chloro-N^2-[4-(4-ethoxyphenyl)-1,2,5-oxadiazol-3-yl]-3-methyl-1-benzofuran-2-carboxamide] was 6.02; that for `CCOc1ccccc1C(=O)Nc1nonc1-c1ccc(OC)cc1` [Example 5, 2-Ethoxy-N^1-[4-(4-methoxyphenyl)-1,2,5-oxadiazol-3-yl]benzamide] was 6.01.
As for `CCCCn1c(-c2nonc2NC(=O)c2ccccc2Cl)nc2ccccc21` [Example 1, 2-Chloro-N^1-[4-(1-butyl-1H-1,3-benzimidazol-2-yl)-1,2,5-oxadiazol-3-yl]benzamide], under “72 h”, the pIC50 was 6.54.
Under “72 h”, `CCOc1ccc(-c2nonc2NC(=O)c2ccccc2OCC)cc1C` [Example 10, 2-Ethoxy-N^1-[4-(4-ethoxy-3-methylphenyl)-1,2,5-oxadiazol-3-yl]benzamide] gave a pIC50 of 6.07.
Under “72 h”, `CCCOc1ccccc1C(=O)Nc1nonc1-c1ccc(OCC)cc1` [Example 8, 2-Propoxy-N^1-[4-(4-ethoxyphenyl)-1,2,5-oxadiazol-3-yl]benzamide] gave a pIC50 of 6.47.
On the same count and under the same terms, in the case of `CCCOc1ccccc1C(=O)Nc1nonc1-c1ccc(OCC)c(C)c1` [Example 11, 2-Propoxy-N^1-[4-(4-ethoxy-3-methylphenyl)-1,2,5-oxadiazol-3-yl]benzamide] it was 6.03; in that of `CC(C)Cn1c(-c2nonc2NC(=O)c2ccccc2Cl)nc2ccccc21` [Example 2, 2-Chloro-N^1-[4-(1-isobutyl-1H-1,3-benzimidazol-2-yl)-1,2,5-oxadiazol-3-yl]benzamide], 6.55.
